{"source": "patent US12433877B2", "about": "“Sustained release drug delivery systems and related methods” (Durect Corporation, priority 2021, dated 2025)", "key": {"[1]": {"system": "patients undergoing total abdominal hysterectomy", "assay": "Adverse reactions, total abdominal hysterectomy study", "type": "in vivo, human", "conditions": "Formulation A N = 60; Bupivacaine HCl N = 27", "procedure": "In a study of patients undergoing total abdominal hysterectomy, Formulation A, vehicle placebo, or bupivacaine HCl was administered into the surgical incision at the end of surgery."}, "clinical": {"assay": "clinical", "conditions": "human, in vivo; for half-life: t1/2 (min, max)", "procedure": "Additionally, alpha 1 acid glycoprotein (AAG) plasma concentrations were measured in these two groups for correlation with free bupivacaine concentrations.\nUsing non-compartmental methods the following PK parameters were calculated from the plasma concentrations of each compound: area under the plasma concentration vs. time curve until the last measured concentration (AUCt), area under the plasma concentration vs. time curve extrapolated until infinity (AUCinf), the maximum concentration (Cmax), the time of its occurrence (tmax) and the apparent terminal elimination half-life (t1/2). […] The average […] of bupivacaine was approximately 5.2%; free bupivacaine plasma concentrations generally paralleled those of total bupivacaine. There was a large interindividual variability of Cmax of both total and free bupivacaine. […] Note: Table 1.5 presents Geometric mean, ±68th percentile for Cmax rather than absolute min,max."}, "[2]": {"system": "subjects undergoing elective outpatient laparoscopic cholecystectomy", "assay": "Example 17: laparoscopic cholecystectomy study, safety (surgical site and CNS-related adverse reactions, TEAEs)", "type": "in vivo", "conditions": "for Fatal TEAE: Part 2", "procedure": "In two studies in patients undergoing laparoscopic cholecystectomy, Formulation A or bupivacaine HCl was administered into the laparoscopic port incisions at the end of surgery. In one of these studies, a subset of patients received either Formulation A or saline placebo. In a study of patients undergoing laparoscopically-assisted colectomy, Formulation A or vehicle placebo was administered predominantly into the hand port incision at the end of surgery. In a study of patients undergoing laparotomy, Formulation A or bupivacaine HCl was administered into the full length of the surgical incision at the end of surgery. Table 4.7 and Table 4.8 present, respectively, surgical-site adverse reactions and early-occurring central nervous system (CNS)-related adverse reactions from the laparoscopic cholecystectomy study that included a saline placebo control arm.\nThe trial included: 1) a randomized, parallel-group, double-blind, placebo-controlled study (Part 1) and a randomized, parallel-group, double-blind, bupivacaine HCl active-controlled study (Part 2). The trial evaluated the efficacy and safety of Formulation A (bupivacaine, benzyl alcohol, sucrose acetate isobutyrate) as a delivery system in subjects undergoing elective outpatient laparoscopic cholecystectomy.\nThe study was conducted as 2 separate parts (Part 1 and Part 2).\nThe fascia was closed, as required, prior to instillation of Formulation A. Formulation A was instilled into the incisions via a blunt-tipped syringe-tip applicator just prior to skin closure. After administration, the skin was closed in standard fashion with subcuticular sutures and cyanoacrylate skin adhesive or Steri-Strips™.\nIn Part 1, subjects randomized to saline-placebo were administered sterile normal saline 5 mL (0.9% sodium chloride injection, USP) by direct instillation into the surgical incisions. The 5 mL of placebo was divided between the 4 ports according to a protocol-specified dosing schedule, to provide coverage of all surgical incisions. The fascia was closed, as required, prior to instillation of the placebo composition. The placebo composition was instilled into the incisions via a blunt-tipped syringe-tip applicator just prior to skin closure. After administration, the skin was closed in standard fashion with subcuticular sutures and cyanoacrylate skin adhesive or Steri-Strips™.\nIn Part 2, subjects randomized to active control were administered bupivacaine HCl 0.5% 15 mL (75 mg; without epinephrine) by infiltration into the margins of the surgical incisions with a 22 gauge needle. The 15 mL of bupivacaine HCl composition was divided between the 4 ports according to a protocol-specified dosing schedule, to provide coverage of all surgical incisions. The fascia was closed, as required, prior to administration of the bupivacaine HCl active control composition. After infiltration, the skin was closed in standard fashion with subcuticular sutures and cyanoacrylate skin adhesive or Steri-Strips™\nThere were no fatalities in this trial. […]"}}, "note": "Counter-ions that a name gives are not always drawn."}
{"smiles": "CCCCN1CCCCC1C(=O)Nc1c(C)cccc1C", "note": "(stereo not drawn) [Bupivacaine HCl]", "values": [{"measurement": "Anemia, (%)", "setting": "[1]", "value": "(11.1%)"}, {"measurement": "C-reactive protein increased, (%)", "setting": "[1]", "value": "(3.7%)"}, {"measurement": "Dizziness, (%)", "setting": "[1]", "value": "(14.8%)"}, {"measurement": "Hypertension, (%)", "setting": "[1]", "value": "(7.4%)"}, {"measurement": "Pyrexia, (%)", "setting": "[1]", "value": "(25.9%)"}, {"measurement": "Somnolence, (%)", "setting": "[1]", "value": "(7.4%)"}, {"measurement": "Vomiting, (%)", "setting": "[1]", "value": "(14.8%)"}, {"measurement": "AUC(0-inf)", "setting": "clinical", "value": "30 to 2210", "unit": "ng·h/mL"}, {"measurement": "AUC(0-t)", "setting": "clinical", "value": "249 to 1900", "unit": "ng·h/mL"}, {"measurement": "AUCinf (min, max), free bupivacaine", "setting": "clinical", "value": "(0.7, 134) h · ng/mL"}, {"measurement": "AUCinf, free bupivacaine", "setting": "clinical", "value": 48, "unit": "ng·h/mL"}, {"measurement": "AUCt (min, max), free bupivacaine", "setting": "clinical", "value": "(0.010, 0.102) mg · h · L^−1"}, {"measurement": "AUCt, free bupivacaine", "setting": "clinical", "value": 0.033, "unit": "mg·h/L"}, {"measurement": "Cmax", "setting": "clinical", "value": "8 to 195", "unit": "ng/mL"}, {"measurement": "Cmax, free bupivacaine", "setting": "clinical", "value": 5.0, "unit": "ng/mL"}, {"measurement": "Cmax, total bupivacaine", "setting": "clinical", "value": 90, "unit": "ng/mL"}, {"measurement": "Tmax", "setting": "clinical", "value": "0.92 to 12", "unit": "h"}, {"measurement": "tmax (min, max), free bupivacaine", "setting": "clinical", "value": "(0.92, 12.0) h"}, {"measurement": "half-life", "setting": "clinical; free bupivacaine", "value": "174 to 912", "unit": "min"}, {"measurement": "half-life", "setting": "clinical; total bupivacaine", "value": "156 to 576", "unit": "min"}, {"measurement": "Fatal TEAE", "setting": "[2]; % of subjects", "value": "(0.0%)"}, {"measurement": "Fatal TEAE", "setting": "[2]; number of subjects", "value": 0}, {"measurement": "Surgical site: Drainage from surgical incision(s)", "setting": "[2]; human, in vivo", "value": "(4.1%)"}, {"measurement": "Surgical site: Surgical site bleeding", "setting": "[2]; human, in vivo", "value": "(16.2%)"}, {"measurement": "Surgical site: Surgical site infection", "setting": "[2]; human, in vivo", "value": "(0.7%)"}, {"measurement": "Surgical site: Visible bruising", "setting": "[2]; human, in vivo", "value": "(70.9%)"}, {"measurement": "Surgical site: Wound dehiscence", "setting": "[2]; human, in vivo", "value": "(2.0%)"}, {"measurement": "Surgical site: Wound hematoma", "setting": "[2]; human, in vivo", "value": "(1.4%)"}, {"measurement": "Treated subjects with treatment-emergent serious adverse events", "setting": "[2]; human, in vivo", "value": 3, "unit": "subjects"}, {"measurement": "Constipation (Constipation), (%)", "setting": "[2]; human, in vivo, 6 h", "value": "(6.8%)"}, {"measurement": "Dizziness (Dizziness), (%)", "setting": "[2]; human, in vivo, 6 h", "value": "(20.9%)"}, {"measurement": "Dysgeusia (Metallic taste in mouth), (%)", "setting": "[2]; human, in vivo, 6 h", "value": "(14.9%)"}, {"measurement": "Headache (Headache), (%)", "setting": "[2]; human, in vivo, 6 h", "value": "(12.2%)"}, {"measurement": "Hypoesthesia (Numbness), (%)", "setting": "[2]; human, in vivo, 6 h", "value": "(0.7%)"}, {"measurement": "Nausea (Nausea), (%)", "setting": "[2]; human, in vivo, 6 h", "value": "(38.5%)"}, {"measurement": "Paresthesia (Tingling), (%)", "setting": "[2]; human, in vivo, 6 h", "value": "(4.1%)"}, {"measurement": "Pruritus (Itching), (%)", "setting": "[2]; human, in vivo, 6 h", "value": "(3.4%)"}, {"measurement": "Somnolence (Drowsiness), (%)", "setting": "[2]; human, in vivo, 6 h", "value": "(32.4%)"}, {"measurement": "Vomiting (Vomiting), (%)", "setting": "[2]; human, in vivo, 6 h", "value": "(10.1%)"}]}
